Assay results as given in patent US11622970B2, “BCL-2 inhibitors and their use as pharmaceuticals” (PRELUDE THERAPEUTICS INCORPORATED, priority 2020, dated 2023).

These compounds were tested against BCL-2 recombinant protein (Homo sapiens, UniProt P10415) (assay: Cell free Bcl-2:Bak affinity assay (Bcl-2 Bak), HTRF competition of FAM-Bak peptide). Conditions: 1 μM compound, 4 nM BCL-2 recombinant protein, 100 nM FAM-Bak, read-out: potency (% inhibition at 1 μM).
Format: binding
Protocol: Biological Assays: Cell Free Bcl-2:Bak Affinity Assay (Bcl-2 Bak)
The assay is based on the competition of fluorescently labeled peptide binding to BCL-2 and the binding is monitored by HTRF signals between anti-GST-Tb and FAM-peptide using GST-Tag BCL proteins. Testing compounds were dissolved in DMSO at 10 mM and tested in 10-concentration IC50 mode. The compounds of interest in DMSO were added in 3-fold serial dilution to each well containing 4 nM of BCL-2 recombinant protein, 20 mM K Phosphate, pH 7.5, 50 mM NaCl, 1 mM EDTA, 0.005% Triton X-100, by using acoustic technology (Labcyte echo 550), After 10 minutes incubation at room temperature, 100 nM of FAM-Bak was added and incubated for another 10 minutes before addition of Anti-GST-Tb. The plate was then sealed and further incubated at room temperature for 60 minutes in the dark before reading. Percentage of inhibition was calculated by % inhibition=100×(FDMSO−F)/(FDMSO−FPC), in which FDMSO is DMSO control and FPC is a positive control. IC50 values were determined from dose-response curve by fitting the percent inhibition against compound concentration using GraphPad Prism software.

Sequence of BCL-2 recombinant protein (P10415 whole entry): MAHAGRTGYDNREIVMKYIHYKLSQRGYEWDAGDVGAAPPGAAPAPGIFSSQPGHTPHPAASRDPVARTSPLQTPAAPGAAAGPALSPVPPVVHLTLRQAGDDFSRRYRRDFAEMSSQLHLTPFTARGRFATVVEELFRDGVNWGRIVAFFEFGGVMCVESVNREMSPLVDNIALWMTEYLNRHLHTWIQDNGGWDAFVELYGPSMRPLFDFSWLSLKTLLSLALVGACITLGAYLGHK

Row | inhibition at 1 µM [%] | SMILES
1 | 50 to 90 | CC1(C)CCC(CN2CCN(c3ccc(S(=O)(=O)NC(=O)c4ccc(F)c(Cl)n4)cc3)CC2)=C(c2ccc(Cl)cc2)C1 [Example 1, 6-Chloro-N-[4-[4-[[2-(4-chlorophenyl)-4,4-dimethylcyclohexen-1-yl]methyl]piperazin-1-yl]phenyl]sulfonyl-5-fluoropyridine-2-carboxamide]
2 | 50 to 90 | CC1(C)CCC(CN2CCN(c3ccc(S(=O)(=O)NC(=O)c4ccc([N+](=O)[O-])c(Cl)n4)cc3)CC2)=C(c2ccc(Cl)cc2)C1 [Example 2, 6-chloro-N-[4-[4-[[2-(4-chlorophenyl)-4,4-dimethylcyclohexen-1-yl]methyl]piperazin-1-yl]phenyl]sulfonyl-5-nitropyridine-2-carboxamide]
3 | 50 to 90 | CC1(C)CCC(CN2CCN(c3ccc(S(=O)(=O)NC(=O)c4ccc5sccc5c4)cc3)CC2)=C(c2ccc(Cl)cc2)C1 [Example 3, N-[4-[4-[[2-(4-chlorophenyl)-4,4-dimethylcyclohexen-1-yl]methyl]piperazin-1-yl]phenyl]sulfonylbenzo[b]thiophene-5-carboxamide]
4 | 50 to 90 | Cc1c(C(=O)NS(=O)(=O)c2ccc(N3CCN(CC4=C(c5ccc(Cl)cc5)CC(C)(C)CC4)CC3)cc2)nnn1Cc1ccccc1 [Example 4, 1-benzyl-N-[4-[4-[[2-(4-chlorophenyl)-4,4-dimethylcyclohexen-1-yl]methyl]piperazin-1-yl]phenyl]sulfonyl-5-methyl-1H-1,2,3-triazole-4-carboxamide]
5 | 50 to 90 | CC1(C)CCC(CN2CCN(c3ccc(S(=O)(=O)NC(=O)c4ccc5ncccc5c4)cc3)CC2)=C(c2ccc(Cl)cc2)C1 [Example 5, N-([4-[4-[[2-(4-chlorophenyl)-4,4-dimethylcyclohexen-1-yl]methyl]piperazin-1-yl]phenyl]sulfonyl)quinoline-6-carboxamide]
6 | 50 to 90 | CC1(C)CCC(CN2CCN(c3ccc(S(=O)(=O)NC(=O)c4cnccn4)cc3)CC2)=C(c2ccc(Cl)cc2)C1 [Example 6, N-([4-[4-[[2-(4-chlorophenyl)-4,4-dimethylcyclohexen-1-yl]methyl]piperazin-1-yl]phenyl]sulfonyl)pyrazine-2-carboxamide]
7 | 50 to 90 | CC1(C)CCC(CN2CCN(c3ccc(S(=O)(=O)NC(=O)C45CC(C4)C5)cc3)CC2)=C(c2ccc(Cl)cc2)C1 [Example 7, N-([4-[4-[[2-(4-chlorophenyl)-4,4-dimethylcyclohexen-1-yl]methyl]piperazin-1-yl]phenyl]sulfonyl)bicyclo[1.1.1]pentane-1-carboxamide]
8 | 50 to 90 | Cc1ncc(C(=O)NS(=O)(=O)c2ccc(N3CCN(CC4=C(c5ccc(Cl)cc5)CC(C)(C)CC4)CC3)cc2)cn1 [Example 8, N-([4-[4-[[2-(4-chlorophenyl)-4,4-dimethylcyclohexen-1-yl]methyl]piperazin-1-yl]phenyl]sulfonyl)-2-methylpyrimidine-5-carboxamide]
9 | 50 to 90 | CC1(C)CCC(CN2CCN(c3ccc(S(=O)(=O)NC(=O)c4cnc5ccccc5c4)cc3)CC2)=C(c2ccc(Cl)cc2)C1 [Example 9, N-((4-(4-((4′-chloro-5,5-dimethyl-3,4,5,6-tetrahydro-[1,1′-biphenyl]-2-yl)methyl)piperazin-1-yl)phenyl)sulfonyl)quinoline-3-carboxamide]
10 | 50 to 90 | CN1C(=O)CCc2cc(C(=O)NS(=O)(=O)c3ccc(N4CCN(CC5=C(c6ccc(Cl)cc6)CC(C)(C)CC5)CC4)cc3)ccc21 [Example 10, N-([4-[4-[[2-(4-chlorophenyl)-4,4-dimethylcyclohexen-1-yl]methyl]piperazin-1-yl]phenyl]sulfonyl)-1-methyl-2-oxo-1,2,3,4-tetrahydroquinoline-6-carboxamide]
11 | 50 to 90 | COc1ccccc1C(=O)NS(=O)(=O)c1ccc(N2CCN(CC3=C(c4ccc(Cl)cc4)CC(C)(C)CC3)CC2)cc1 [Example 11, N-([4-[4-[[2-(4-chlorophenyl)-4,4-dimethylcyclohexen-1-yl]methyl]piperazin-yl]phenyl]sulfonyl)-2-methoxybenzamide]
12 | < 50 | CC1(C)CCC(CN2CCN(c3ccc(S(=O)(=O)NC(=O)c4cc(C5CC5)on4)cc3)CC2)=C(c2ccc(Cl)cc2)C1 [Example 12, N-([4-[4-[[2-(4-chlorophenyl)-4,4-dimethylcyclohexen-1-yl]methyl]piperazin-1-yl]phenyl]sulfonyl)-5-cyclopropylisoxazole-3-carboxamide]
13 | 50 to 90 | CC1(C)CCC(CN2CCN(c3ccc(S(=O)(=O)NC(=O)c4ccc(Br)cn4)cc3)CC2)=C(c2ccc(Cl)cc2)C1 [Example 13, 5-bromo-N-([4-[4-[[2-(4-chlorophenyl)-4,4-dimethylcyclohexen-1-yl]methyl]piperazin-1-yl]phenyl]sulfonyl)pyridine-2-carboxamide]
14 | 50 to 90 | Cc1cc(C(=O)NS(=O)(=O)c2ccc(N3CCN(CC4=C(c5ccc(Cl)cc5)CC(C)(C)CC4)CC3)cc2)[nH]n1 [Example 14, N-([4-[4-[[2-(4-chlorophenyl)-4,4-dimethylcyclohexen-1-yl]methyl]piperazin-1-yl]phenyl]sulfonyl)-3-methyl-1H-pyrazole-5-carboxamide]
15 | 50 to 90 | CC1(C)CCC(CN2CCN(c3ccc(S(=O)(=O)NC(=O)c4cccc(Cl)c4)cc3)CC2)=C(c2ccc(Cl)cc2)C1 [Example 15, 3-chloro-N-([4-[4-[[2-(4-chlorophenyl)-4,4-dimethylcyclohexen-1-yl]methyl]piperazin-1-yl]phenyl]sulfonyl)benzamide]
16 | 50 to 90 | Cc1nc(C(=O)NS(=O)(=O)c2ccc(N3CCN(CC4=C(c5ccc(Cl)cc5)CC(C)(C)CC4)CC3)cc2)ccc1F [Example 16, N-([4-[4-[[2-(4-chlorophenyl)-4,4-dimethylcyclohexen-1-yl]methyl]piperazin-1-yl]phenyl]sulfonyl)-5-fluoro-6-methyl pyridine-2-carboxamide]
17 | 50 to 90 | Cc1onc(C(=O)NS(=O)(=O)c2ccc(N3CCN(CC4=C(c5ccc(Cl)cc5)CC(C)(C)CC4)CC3)cc2)c1C [Example 17, N-([4-[4-[[2-(4-chlorophenyl)-4,4-dimethylcyclohexen-1-yl]methyl]piperazin-1-yl]phenyl]sulfonyl)-4,5-dimethylisoxazole-3-carboxamide]
18 | 50 to 90 | COCc1cccc(C(=O)NS(=O)(=O)c2ccc(N3CCN(CC4=C(c5ccc(Cl)cc5)CC(C)(C)CC4)CC3)cc2)c1 [Example 18, N-([4-[4-[[2-(4-chlorophenyl)-4,4-dimethylcyclohexen-1-yl]methyl]piperazin-1-yl]phenyl]sulfonyl)-3-(methoxymethyl)benzamide]
19 | 50 to 90 | COCc1ccc(C(=O)NS(=O)(=O)c2ccc(N3CCN(CC4=C(c5ccc(Cl)cc5)CC(C)(C)CC4)CC3)cc2)cc1 [Example 19, N-([4-[4-[[2-(4-chlorophenyl)-4,4-dimethylcyclohexen-1-yl]methyl]piperazin-1-yl]phenyl]sulfonyl)-4-(methoxymethyl)benzamide]
20 | 50 to 90 | CC1(C)CCC(CN2CCN(c3ccc(S(=O)(=O)NC(=O)c4ccc(Cl)c(Cl)n4)cc3)CC2)=C(c2ccc(Cl)cc2)C1 [Example 20, 5,6-dichloro-N-([4-[4-[[2-(4-chlorophenyl)-4,4-dimethylcyclohexen-1-yl]methyl]piperazin-1-yl]phenyl]sulfonyl)pyridine-2-carboxamide]
